# Measurements taken from PMC9386376, “Discovery of spirooxindole-derived small-molecule compounds as novel HDAC/MDM2 dual inhibitors and investigation of their anticancer activity” (Frontiers in Oncology, 2022).
# What was measured:
# GST-tagged MDM2 = target: T1, GST-tagged MDM2 (Homo sapiens, UniProt Q00987); assay: HTRF enzyme inhibition assay, MDM2; type: biochemical; conditions: compound at 1 μM
# T1 construct: purchased Cisbio Co. Ltd
# Method: The enzymatic assay of test compounds is using the HTRF-based method provided by Cisbio Co. Ltd. In brief, the target compounds to be tested were prepared into samples with a concentration of 1 μM, which was added to GST-tagged MDM2 and HDAC1 proteins, respectively, then biotinylated substrate p53 peptide and HTRF detection reagents were added. The data obtained were processed by the ratio method, and the inhibition rates of MDM2 and HDAC1 were calculated. The detailed experimental procedures are according to the manufacturer’s protocols.
# A431 cells = assay: MTT antiproliferative assay, A431; conditions: read-out: IC50 A431; MTT, A431 human epidermal carcinoma, mean ± standard of at least three replicates
# Method: (§1) The cytotoxicity assay was performed with MTT method as previously described ([73], [88], [89]).
# MCF-7 cells = assay: MTT antiproliferative assay, MCF-7; conditions: read-out: IC50 MCF-7; MTT, MCF-7 human breast cancer, mean ± standard of at least three replicates
# Method: as §1
# HDAC1 = HDAC1 (Homo sapiens, UniProt Q13547); assay: HTRF enzyme inhibition assay, HDAC1; conditions: for % enzyme inhibition HDAC: compound at 1 μM, HTRF, method names HDAC1 protein; for inhibition at 1 µM: read-out: % enzyme inhibition HDAC
# Chain of HDAC1 (Q13547 whole entry): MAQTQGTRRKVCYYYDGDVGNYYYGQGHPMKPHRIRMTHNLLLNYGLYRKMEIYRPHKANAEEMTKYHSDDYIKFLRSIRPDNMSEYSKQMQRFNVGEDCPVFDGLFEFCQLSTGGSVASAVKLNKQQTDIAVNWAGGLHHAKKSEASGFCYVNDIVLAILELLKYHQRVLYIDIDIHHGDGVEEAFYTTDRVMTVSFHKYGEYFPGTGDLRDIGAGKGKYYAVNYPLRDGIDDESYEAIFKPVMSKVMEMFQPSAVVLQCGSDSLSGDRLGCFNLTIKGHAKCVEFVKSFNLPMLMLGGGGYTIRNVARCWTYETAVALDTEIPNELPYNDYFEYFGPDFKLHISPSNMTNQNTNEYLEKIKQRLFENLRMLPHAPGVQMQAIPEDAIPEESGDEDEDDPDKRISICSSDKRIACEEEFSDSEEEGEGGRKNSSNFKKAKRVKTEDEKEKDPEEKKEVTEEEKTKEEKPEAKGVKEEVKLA
# HCT116 cells = assay: MTT antiproliferative assay, HCT116; conditions: read-out: IC50 HCT116; MTT, HCT116 human colorectal cancer, mean ± standard of at least three replicates
# Method: as §1
# T1 sequence (Q00987 whole entry): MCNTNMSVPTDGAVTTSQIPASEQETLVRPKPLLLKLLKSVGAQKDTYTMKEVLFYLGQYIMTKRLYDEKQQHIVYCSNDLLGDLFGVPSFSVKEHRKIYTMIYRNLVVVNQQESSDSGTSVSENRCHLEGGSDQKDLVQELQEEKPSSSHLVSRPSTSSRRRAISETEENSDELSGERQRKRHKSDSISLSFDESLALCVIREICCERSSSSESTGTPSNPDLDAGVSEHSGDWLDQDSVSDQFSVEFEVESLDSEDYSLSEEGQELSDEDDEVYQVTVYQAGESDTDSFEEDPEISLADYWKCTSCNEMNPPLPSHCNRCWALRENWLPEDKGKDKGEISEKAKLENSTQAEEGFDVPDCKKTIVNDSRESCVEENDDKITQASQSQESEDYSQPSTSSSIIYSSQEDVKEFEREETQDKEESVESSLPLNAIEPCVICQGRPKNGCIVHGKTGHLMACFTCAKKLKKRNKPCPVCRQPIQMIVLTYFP
Compound,% enzyme inhibition MDM2 (GST-tagged MDM2) [%],IC50 (A431 cells) [µM],IC50 (MCF-7 cells) [µM],% enzyme inhibition HDAC (HDAC1) [%],IC50 (HCT116 cells) [µM],inhibition at 1 µM (GST-tagged MDM2) [%],melting point [°C],inhibition at 1 µM (HDAC1) [%]
"N^1-(4-((3R,6'S,7'R,7a'S)-6-chloro-6'-(4-fluorobenzoyl)-2-oxo-1',6',7',7a'-tetrahydro-3'H-spiro[indoline-3,5'-pyrrolo[1,2-c]thiazol]-7'-yl)phenyl)-N^6-hydroxyadipamide [7x]",62,3.43 ± 0.73,2.9 ± 0.56,73,3.45 ± 0.57,–,–,–
"O=C(CCCCCCC(=O)Nc1ccc([C@@H]2[C@H]3CSCN3[C@]3(C(=O)Nc4ccc(Cl)cc43)[C@H]2C(=O)c2ccccc2)cc1)NO [7d, N^1-(4-((3R,6'S,7'R,7a'S)-6'-benzoyl-5-chloro-2-oxo-1',6',7',7a'-tetrahydro-3'H-spiro[indoline-3,5'-pyrrolo[1,2-c]thiazol]-7'-yl)phenyl)-N^8-hydroxyoctanediamide]",–,–,–,–,–,49,154.6 to 156.2,67
"COc1ccc2c(c1)[C@@]1(C(=O)N2)[C@@H](C(=O)c2ccccc2)[C@H](c2ccc(NC(=O)CCCCCCC(=O)NO)cc2)[C@H]2CSCN21 [7j, N^1-(4-((3R,6'S,7'R,7a'S)-6'-benzoyl-5-methoxy-2-oxo-1',6',7',7a'-tetrahydro-3'H-spiro[indoline-3,5'-pyrrolo[1,2-c]thiazol]-7'-yl)phenyl)-N^8-hydroxyoctanediamide]",–,–,–,–,–,50,134.9 to 136.2,70
"O=C(CCCCCCC(=O)Nc1ccc([C@@H]2[C@H]3CSCN3[C@]3(C(=O)Nc4ccccc43)[C@H]2C(=O)c2ccccc2)cc1)NO [7a, N^1-(4-((3R,6'S,7'R,7a'S)-6'-benzoyl-2-oxo-1',6',7',7a'-tetrahydro-3'H-spiro[indoline-3,5'-pyrrolo[1,2-c]thiazol]-7'-yl)phenyl)-N^8-hydroxyoctanediamide]",–,–,–,–,–,39,144.7 to 146.1,69
"O=C(CCCCC(=O)Nc1ccc(C(=O)Nc2ccc([C@@H]3[C@H]4CSCN4[C@]4(C(=O)Nc5cc(Cl)ccc54)[C@H]3C(=O)c3ccccc3)cc2)cc1)NO [7v, N^1-(4-((4-((3R,6'S,7'R,7a'S)-6'-benzoyl-6-chloro-2-oxo-1',6',7',7a'-tetrahydro-3'H-spiro[indoline-3,5'-pyrrolo[1,2-c]thiazol]-7'-yl)phenyl)carbamoyl)phenyl)-N^6-hydroxyadipamide]",–,–,–,–,–,58,175.5 to 176.6,53
"N^1-(4-((3R,6'S,7'R,7a'S)-6-chloro-6'-(3-methoxybenzoyl)-2-oxo-1',6',7',7a'-tetrahydro-3'H-spiro[indoline-3,5'-pyrrolo[1,2-c]thiazol]-7'-yl)phenyl)-N^6-hydroxyadipamide [7w]",60,3.32 ± 0.68,3.77 ± 0.93,69,3.91 ± 0.84,–,–,–
"Cc1cccc2c1NC(=O)[C@@]21[C@@H](C(=O)c2ccccc2)[C@H](c2ccc(NC(=O)CCCCCCC(=O)NO)cc2)[C@H]2CSCN21 [7h, N^1-(4-((3R,6'S,7'R,7a'S)-6'-benzoyl-7-methyl-2-oxo-1',6',7',7a'-tetrahydro-3'H-spiro[indoline-3,5'-pyrrolo[1,2-c]thiazol]-7'-yl)phenyl)-N^8-hydroxyoctanediamide]",–,–,–,–,–,23,142.7 to 143.9,71
"Nc1ccccc1NC(=O)CCCCCCC(=O)Nc1ccc([C@@H]2[C@H]3CSCN3[C@]3(C(=O)Nc4cc(Cl)ccc43)[C@H]2C(=O)c2ccccc2)cc1 [9d, N^1-(2-aminophenyl)-N^8-(4-((3R,6'S,7'R,7a'S)-6'-benzoyl-6-chloro-2-oxo-1',6',7',7a'-tetrahydro-3'H-spiro[indoline-3,5'-pyrrolo[1,2-c]thiazol]-7'-yl)phenyl)octanediamide]",–,–,–,–,–,56,145.2 to 146.4,55
"O=C(CCCCCCC(=O)Nc1ccc([C@@H]2[C@H]3CSCN3[C@]3(C(=O)Nc4cc(Cl)ccc43)[C@H]2C(=O)c2ccccc2)cc1)NO [compound 7f, N^1-(4-((3R,6'S,7'R,7a'S)-6'-benzoyl-6-chloro-2-oxo-1',6',7',7a'-tetrahydro-3'H-spiro[indoline-3,5'-pyrrolo[1,2-c]thiazol]-7'-yl)phenyl)-N^8-hydroxyoctanediamide]",–,–,–,–,–,65,150.2 to 151.2,64
"COc1cccc(C(=O)[C@H]2[C@H](c3ccc(NC(=O)CCCCCCC(=O)NO)cc3)[C@H]3CSCN3[C@]23C(=O)Nc2ccccc23)c1 [7l, N^1-hydroxy-N^8-(4-((3R,6'S,7'R,7a'S)-6'-(3-methoxybenzoyl)-2-oxo-1',6',7',7a'-tetrahydro-3'H-spiro[indoline-3,5'-pyrrolo[1,2-c]thiazol]-7'-yl)phenyl)octanediamide]",–,–,–,–,–,44,121.6 to 122.8,62
"O=C(CCCCCCC(=O)Nc1ccc([C@@H]2[C@H]3CSCN3[C@]3(C(=O)Nc4c(Br)cccc43)[C@H]2C(=O)c2ccccc2)cc1)NO [7i, N^1-(4-((3R,6'S,7'R,7a'S)-6'-benzoyl-7-bromo-2-oxo-1',6',7',7a'-tetrahydro-3'H-spiro[indoline-3,5'-pyrrolo[1,2-c]thiazol]-7'-yl)phenyl)-N^8-hydroxyoctanediamide]",–,–,–,–,–,30,137.5 to 138.9,67
"O=C(CCCCCCC(=O)Nc1ccc([C@@H]2[C@H]3CSCN3[C@]3(C(=O)Nc4ccccc43)[C@H]2C(=O)c2cccc(Br)c2)cc1)NO [7n, N^1-(4-((3R,6'S,7'R,7a'S)-6'-(3-bromobenzoyl)-2-oxo-1',6',7',7a'-tetrahydro-3'H-spiro[indoline-3,5'-pyrrolo[1,2-c]thiazol]-7'-yl)phenyl)-N^8-hydroxyoctanediamide]",–,–,–,–,–,43,120.2 to 121.5,69
"Nc1ccccc1NC(=O)CCCCC(=O)Nc1ccc([C@@H]2[C@H]3CSCN3[C@]3(C(=O)Nc4cc(Cl)ccc43)[C@H]2C(=O)c2ccccc2)cc1 [9c, N^1-(2-aminophenyl)-N^6-(4-((3R,6'S,7'R,7a'S)-6'-benzoyl-6-chloro-2-oxo-1',6',7',7a'-tetrahydro-3'H-spiro[indoline-3,5'-pyrrolo[1,2-c]thiazol]-7'-yl)phenyl)adipamide]",–,–,–,–,–,57,148.9 to 150,40
"O=C(CCCCCCCCC(=O)Nc1ccc([C@@H]2[C@H]3CSCN3[C@]3(C(=O)Nc4cc(Cl)ccc43)[C@H]2C(=O)c2ccccc2)cc1)NO [7s, N^1-(4-((3R,6'S,7'R,7a'S)-6'-benzoyl-6-chloro-2-oxo-1',6',7',7a'-tetrahydro-3'H-spiro[indoline-3,5'-pyrrolo[1,2-c]thiazol]-7'-yl)phenyl)-N^10-hydroxydecanediamide]",–,–,–,–,–,59,137.7 to 139,68
"O=C(CCCCC(=O)Nc1ccc([C@@H]2[C@H]3CSCN3[C@]3(C(=O)Nc4ccccc43)[C@H]2C(=O)c2ccccc2)cc1)NO [7p, N^1-(4-((3R,6'S,7'R,7a'S)-6'-benzoyl-2-oxo-1',6',7',7a'-tetrahydro-3'H-spiro[indoline-3,5'-pyrrolo[1,2-c]thiazol]-7'-yl)phenyl)-N^6-hydroxyadipamide]",–,–,–,–,–,44,140.3 to 141.7,60
